The values that follow come from patent publication US12435061B2 (priority 2020, dated 2025).

In brackets after ≈: the same amount, converted by molar mass. Where two headings read alike, the source gives them in different places. Where only a bound is given, the exact number is not on record here.

Data set [1] is described as follows: Aqueous solubility assay in Normal Ringer Solution. To be noted: Normal Ringer Solution; for solubility at 40 min: saline or isotonic, kinetic from dmso stock. The protocol: Following vortex and incubation for a sufficient time (e.g. 40 minutes at room temperature), solutions were filtered, quenched with acetonitrile, and analyzed by Liquid Chromotography. Solubility Limits were determined by comparison to a standard curve.

Another data set has as its target hTRPV3 (Homo sapiens (Human), UniProt Q8NET8). The data set can be described thus: Whole-cell patch clamp, hTRPV3 Phase 1 / Phase 2 currents. Type of data set: cell-based. The method in brief:
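Whole-cell recordings on induced TRPV3 cells replated on coverslips, held at −40 mV with 400 ms ramps from −120 to +100 mV every 5 s; currents read at −80 and +80 mV. Ringer's external solution; current activated by heating to ≥28 °C or 20 μM 2-APB.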

The nature of data set [2]: Metabolic Stability assay, rat liver microsomes. Type of data set: in vitro ADME. As to conditions: for half-life at 1 μM: read-out: LM T1/2 (min) (rat). The method, then: Metabolic Stability assay: The metabolic stability was determined by adding compound dissolved in DMSO to human or rat, liver microsomes. Briefly, assays were run with a starting concentration of 1 μM test article. The reaction was started by addition of NADPH regeneration components at 37° C. at which time an aliquot was immediately quenched in ice-cold acetonitrile/MeOH/H2O solution. Reaction mixture was incubated at 37° C. on a shaker, and additional aliquots were taken at 7, 15, 30 and 60 minutes. Following quench and centrifugation, samples were analyzed on HPLC/MS/MS.

[3] abbreviates: Phase 1 current, inward, whole-cell patch clamp, read-out: hTRPV3 Patch P1 Inwd.
Where [4] appears, read: Phase 1 current, read-out: hTRPV3 (nM) (Phase 1).
The mark [5] stands for this setting: Phase 2 current, inward, whole-cell patch clamp, read-out: hTRPV3 Patch P2 Inwd.
Where [6] appears, read: Phase 2 current, read-out: hTRPV3 (nM) (Phase 2).

Sequence of hTRPV3 (Q8NET8 whole entry): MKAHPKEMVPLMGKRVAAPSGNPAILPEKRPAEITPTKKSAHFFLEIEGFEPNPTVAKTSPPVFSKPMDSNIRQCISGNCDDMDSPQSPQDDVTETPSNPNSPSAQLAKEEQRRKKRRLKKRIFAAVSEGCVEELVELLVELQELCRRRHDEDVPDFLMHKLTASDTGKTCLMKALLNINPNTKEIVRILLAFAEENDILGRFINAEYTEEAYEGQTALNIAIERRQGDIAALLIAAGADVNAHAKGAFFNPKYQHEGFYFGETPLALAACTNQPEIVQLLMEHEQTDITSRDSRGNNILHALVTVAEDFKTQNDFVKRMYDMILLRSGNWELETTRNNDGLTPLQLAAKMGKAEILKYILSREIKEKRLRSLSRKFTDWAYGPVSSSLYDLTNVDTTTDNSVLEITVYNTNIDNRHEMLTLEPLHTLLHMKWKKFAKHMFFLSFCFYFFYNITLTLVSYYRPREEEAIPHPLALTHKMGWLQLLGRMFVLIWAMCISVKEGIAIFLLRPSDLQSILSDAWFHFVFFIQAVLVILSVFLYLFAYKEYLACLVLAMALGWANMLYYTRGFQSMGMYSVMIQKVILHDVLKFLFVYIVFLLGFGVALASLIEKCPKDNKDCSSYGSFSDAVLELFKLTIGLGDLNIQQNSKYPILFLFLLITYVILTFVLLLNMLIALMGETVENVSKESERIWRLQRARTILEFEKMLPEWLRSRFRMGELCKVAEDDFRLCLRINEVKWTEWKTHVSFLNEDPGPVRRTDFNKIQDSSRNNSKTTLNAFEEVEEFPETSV

Regarding `CC(=O)c1ccccc1-c1ccc(N2CC[C@H](Oc3ccc(C(F)(F)F)cn3)C2)c(CO)c1` [Compound 1-157, (S)-1-(3′-(hydroxymethyl)-4′-(3-(5-(trifluoromethyl)pyridin-2-yloxy)pyrrolidin-1-yl)biphenyl-2-yl)ethanone], the solubility at 40 min in data set [1] was roughly 1.8 µM (≈ 0.822 µg/mL). Also, the IC50 is 100 to 1000 nM on hTRPV3 (setting [3]) and 211 nM on hTRPV3 (setting [4]). Further, the half-life at 1 μM in data set [2] amounted to 17.5 min.
Consider `COCc1ccccc1-c1ccc(N2CC[C@H](Oc3ccc(C(F)(F)F)cn3)C2)c(CO)c1` [Compound 1-160, (S)-(2′-(methoxymethyl)-4-(3-(5-(trifluoromethyl)pyridin-2-yloxy)pyrrolidin-1-yl)biphenyl-3-yl)methanol], for which the solubility at 40 min in data set [1] is roughly 0.4 µM (≈ 0.183 µg/mL). The IC50 at hTRPV3 (setting [3]) is 10 to 100 nM; on hTRPV3 (setting [4]), 71.6 nM; on hTRPV3 (setting [5]), 100 to 1000 nM; at hTRPV3 (setting [6]), 106 nM. In data set [2], the half-life at 1 μM stood at 19.1 min.
`O=C(CO)c1cc(-c2ccccc2)ccc1N1CC[C@H](Oc2ccc(C(F)(F)F)cn2)C1` [Compound 1-178, (S)-2-hydroxy-1-(4-(3-(5-(trifluoromethyl)pyridin-2-yloxy)pyrrolidin-1-yl)biphenyl-3-yl)ethanone] showed a solubility at 40 min in data set [1] of roughly 0.2 µM (≈ 0.0885 µg/mL). The values for the IC50 at hTRPV3 (setting [5]) and on hTRPV3 (setting [6]) were 100 to 1000 nM and 146 nM, respectively. For the same molecule, the half-life at 1 μM in data set [2] was 66.5 min.
The molecule `COc1ccccc1Oc1ccc(N2CC[C@H](Oc3ccc(C)cn3)C2)c(CO)n1` [Compound 1-205, (S)-(6-(2-methoxyphenoxy)-3-(3-(5-methylpyridin-2-yloxy)pyrrolidin-1-yl)pyridin-2-yl)methanol] came in with a solubility at 40 min in data set [1] greater than 7.2 µM. Further, the IC50 on hTRPV3 (setting [3]) is greater than 1000 nM; on hTRPV3 (setting [4]), roughly 3000 nM; at hTRPV3 (setting [5]), greater than 1000 nM; at hTRPV3 (setting [6]), roughly 6000 nM. In data set [2], the half-life at 1 μM is 16 min.
For the molecule `Cc1ccccc1C(=O)c1ccc(N2CC[C@H](Oc3ncccc3F)C2)c(CO)c1` [Compound 1-243, (S)-(4-(3-(3-fluoropyridin-2-yloxy)pyrrolidin-1-yl)-3-(hydroxymethyl)phenyl)(o-tolyl)methanone], the solubility at 40 min in data set [1] was roughly 7.34 µM (≈ 2.98 µg/mL). For the same molecule, the IC50 was 100 to 1000 nM on hTRPV3 (setting [3]) and 296 nM on hTRPV3 (setting [4]). Further, the half-life at 1 μM in data set [2] turned out to be 6.26 min.
Consider `Cc1ccccc1C(=O)c1ccc(N2CC[C@H](Oc3ncccc3Cl)C2)c(CO)c1` [Compound 1-246, (S)-(4-(3-(3-chloropyridin-2-yloxy)pyrrolidin-1-yl)-3-(hydroxymethyl)phenyl)(o-tolyl)methanone], for which the solubility at 40 min in data set [1] is roughly 1.87 µM (≈ 0.791 µg/mL). In addition, the IC50 on hTRPV3 (setting [3]) is 100 to 1000 nM; on hTRPV3 (setting [4]) it was 136 nM; at hTRPV3 (setting [5]), 100 to 1000 nM; on hTRPV3 (setting [6]) it was 136 nM. In data set [2], the half-life at 1 μM was 7.36 min.
Regarding `Cc1ccccc1C(O)c1ccc(N2CC[C@H](Oc3ncccc3Cl)C2)c(CO)c1` (stereo partly drawn) [Compound 1-247, (4-((S)-3-(3-chloropyridin-2-yloxy)pyrrolidin-1-yl)-3-(hydroxymethyl)phenyl)(o-tolyl)methanol], in data set [1], the solubility at 40 min is greater than 9 µM. For the same molecule, the IC50 on hTRPV3 (setting [3]) is 100 to 1000 nM; at hTRPV3 (setting [4]), 132 nM; on hTRPV3 (setting [5]) it was 100 to 1000 nM; at hTRPV3 (setting [6]), 202 nM. The half-life at 1 μM in data set [2] stood at 13.1 min.
As to `CCc1ccccc1C(=O)c1ccc(N2CC[C@H](Oc3ncccc3Cl)C2)c(CO)c1` [Compound 1-251, (S)-(4-(3-(3-chloropyridin-2-yloxy)pyrrolidin-1-yl)-3-(hydroxymethyl)phenyl)(2-ethylphenyl)methanone], in data set [1] (room temperature), the “Solubility Ringer” value is greater than 3.6 µM. Moreover, the IC50 at hTRPV3 (setting [3]) is 10 to 100 nM; at hTRPV3 (setting [4]), 102 nM. For the same molecule, the “LM T1/2 (min) (rat)” value in data set [2] (1 μM) was 6.25 (rat) min.
In the case of `CCc1ccccc1C(=O)c1ccc(N2CC[C@H](Oc3ncccc3Cl)C2)c(CO)c1` [Compound 1-256, (S)-(4-(3-(3-chloropyridin-2-yloxy)pyrrolidin-1-yl)-3-(hydroxymethyl)phenyl)(2-ethylphenyl)methanone], in data set [1], the solubility at 40 min is roughly 0.45 µM (≈ 0.197 µg/mL). Also, the IC50 is 10 to 100 nM on hTRPV3 (setting [3]) and 50.9 nM on hTRPV3 (setting [4]). In data set [2], the half-life at 1 μM was 6.05 min.
Molecule `OCc1cc(C(O)c2ccccc2Cl)ccc1N1CC[C@H](Oc2ncccc2F)C1` (stereo partly drawn) [Compound 1-264, (2-chlorophenyl)(4-((S)-3-(3-fluoropyridin-2-yloxy)pyrrolidin-1-yl)-3-(hydroxymethyl)phenyl)methanol] had a solubility at 40 min in data set [1] greater than 13.2 µM. The IC50 was 10 to 100 nM on hTRPV3 (setting [3]), 54.1 nM at hTRPV3 (setting [4]), 10 to 100 nM at hTRPV3 (setting [5]) and 79.3 nM at hTRPV3 (setting [6]). In addition, in data set [2], the half-life at 1 μM was 19.4 min.
Regarding `CCc1ccccc1Oc1ccc(N2CC[C@H](Oc3ncccc3F)C2)c(CO)c1` [Compound 1-267, (S)-(5-(2-ethylphenoxy)-2-(3-(3-fluoropyridin-2-yloxy)pyrrolidin-1-yl)phenyl)methanol], in data set [1], the solubility at 40 min was roughly 0.38 µM (≈ 0.155 µg/mL). Moreover, the results for the IC50 at hTRPV3 (setting [3]) and at hTRPV3 (setting [4]) were 10 to 100 nM and 19.1 nM, respectively. Moreover, in data set [2], the half-life at 1 μM is 30.6 min.
Regarding `CCc1ccccc1Oc1ccc(N2CC[C@H](Oc3ncccc3C)C2)c(CO)c1` [Compound 1-268, (S)-(5-(2-ethylphenoxy)-2-(3-(3-methylpyridin-2-yloxy)pyrrolidin-1-yl)phenyl)methanol], in data set [1], the solubility at 40 min stood at 0.25 µM (≈ 0.101 µg/mL). The IC50 on hTRPV3 (setting [3]) was less than 10 nM; on hTRPV3 (setting [4]) it was 2.8 nM; on hTRPV3 (setting [5]), less than 10 nM; on hTRPV3 (setting [6]), roughly 2.54 nM. Also, in data set [2], the half-life at 1 μM worked out at 22 min.
Molecule `OCc1cc(Oc2ccccc2F)ccc1N1CC[C@H](Oc2ncccc2Cl)C1` [Compound 1-270, (S)-(2-(3-(3-chloropyridin-2-yloxy)pyrrolidin-1-yl)-5-(2-fluorophenoxy)phenyl)methanol] showed a solubility at 40 min in data set [1] of 1 µM (≈ 0.415 µg/mL). The IC50 on hTRPV3 (setting [3]) was less than 10 nM; at hTRPV3 (setting [4]), 9.39 nM; on hTRPV3 (setting [5]) it was less than 10 nM; on hTRPV3 (setting [6]), 7.44 nM. Moreover, the half-life at 1 μM in data set [2] amounted to 24.3 min.
With `CCc1ccccc1Oc1ccc(N2CC[C@H](Oc3ccccn3)C2)c(CO)c1` [Compound 1-275], the solubility at 40 min in data set [1] is roughly 1 µM (≈ 0.39 µg/mL). The IC50 on hTRPV3 (setting [3]) is 10 to 100 nM; on hTRPV3 (setting [4]), 24.8 nM. In addition, the half-life at 1 μM in data set [2] amounted to 22.8 min.
For `Cc1ccc(C(=O)c2ccc(N3CC[C@H](Oc4ncccc4Cl)C3)c(CO)c2)cc1` [Compound 1-277, (S)-(4-(3-(3-chloropyridin-2-yloxy)pyrrolidin-1-yl)-3-(hydroxymethyl)phenyl)(p-tolyl)methanone] the same measures were 0.47 µM (≈ 0.199 µg/mL), 10 to 100 nM, 63 nM and 15.7 min.
As to `O=C(c1ccc(F)cc1)c1ccc(N2CC[C@H](Oc3ncccc3Cl)C2)c(CO)c1` [Compound 1-279, (S)-(4-(3-(3-chloropyridin-2-yloxy)pyrrolidin-1-yl)-3-(hydroxymethyl)phenyl)(4-fluorophenyl)methanone], the solubility at 40 min in data set [1] was 1.2 µM (≈ 0.512 µg/mL). Moreover, the IC50 at hTRPV3 (setting [3]) was 10 to 100 nM; at hTRPV3 (setting [4]) it was 56.9 nM. The half-life at 1 μM in data set [2] is 18.4 min.
For `Cc1cccc(C(=O)c2ccc(N3CC[C@H](Oc4ncccc4Cl)C3)c(CO)c2)c1` [Compound 1-282, (S)-(4-(3-(3-chloropyridin-2-yloxy)pyrrolidin-1-yl)-3-(hydroxymethyl)phenyl)(m-tolyl)methanone] the same measures were roughly 0.67 µM (≈ 0.283 µg/mL), 10 to 100 nM, 62.3 nM and 16.1 min.
As for `COC(c1ccc(F)cc1)c1ccc(N2CC[C@H](Oc3ncccc3Cl)C2)c(CO)c1` (stereo partly drawn) [Compound 1-289, (2-((S)-3-(3-chloropyridin-2-yloxy)pyrrolidin-1-yl)-5-((4-fluorophenyl)(methoxy)methyl)phenyl)methanol], in data set [1], the solubility at 40 min was roughly 1.75 µM (≈ 0.775 µg/mL). The figures for the IC50 on hTRPV3 (setting [3]) and on hTRPV3 (setting [4]) were 10 to 100 nM and 66.2 nM, respectively. For the same molecule, in data set [2], the half-life at 1 μM was determined as 9.22 min.
For `COCc1ccccc1Oc1ccc(N2CC[C@H](Oc3ncccc3Cl)C2)c(CCO)c1` [Compound 1-297, (S)-2-(2-(3-(3-chloropyridin-2-yloxy)pyrrolidin-1-yl)-5-(2-(methoxymethyl)phenoxy)phenyl)ethanol] the same measures were 1.4 µM (≈ 0.637 µg/mL), 10 to 100 nM, 56.6 nM and 7.44 min.
For `OCc1cc(Oc2cccc(Cl)c2)ccc1N1CC[C@H](Oc2ccccn2)C1` [Compound 1-304] the same measures were roughly 1 µM (≈ 0.397 µg/mL), 10 to 100 nM, 55.8 nM and 17.5 min.
For `OCCc1cc(Oc2ccccc2F)ccc1N1CC[C@H](Oc2ncccc2F)C1` [Compound 1-313, (S)-2-(5-(2-fluorophenoxy)-2-(3-(3-fluoropyridin-2-yloxy)pyrrolidin-1-yl)phenyl)ethanol], the solubility at 40 min in data set [1] is roughly 2 µM (≈ 0.825 µg/mL). Besides, the IC50 at hTRPV3 (setting [3]) was 10 to 100 nM; at hTRPV3 (setting [4]), 72.5 nM; on hTRPV3 (setting [5]), 10 to 100 nM; on hTRPV3 (setting [6]) it was 71.3 nM. Further, the half-life at 1 μM in data set [2] is 9.29 min.
